Key:
Experiment in all cases: relative viability (nuclei count vs DMSO), 5 days (fraction); higher = more cells survive
Tipifarnib + Trametinib = compound: Cn1cncc1[C@@](N)(c1ccc(Cl)cc1)c1ccc2c(c1)c(-c1cccc(Cl)c1)cc(=O)n2C [Tipifarnib] + CC(=O)Nc1cccc(-n2c(=O)n(C3CC3)c(=O)c3c(Nc4ccc(I)cc4F)n(C)c(=O)c(C)c32)c1 [Trametinib] (partner 0.02 µM)
Procedure, shortened: (§1)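 The day after seeding in 1536-well plates, lung cancer cell lines were treated by pin tool with a single drug, or with a fixed anchor-drug dose together with five library-drug doses (not always all listed) in √10 steps. After 5 days, a combined fix-and-stain solution (final 0.05% Triton X-100, 1% formaldehyde, 1 ug/ml Hoechst) was added. Nuclei counted on 4× images gave relative viability as treated counts over vehicle counts, reported as the median of duplicate plates.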

Tipifarnib + Navitoclax = compound: Cn1cncc1[C@@](N)(c1ccc(Cl)cc1)c1ccc2c(c1)c(-c1cccc(Cl)c1)cc(=O)n2C [Tipifarnib] + CC1(C)CCC(c2ccc(Cl)cc2)=C(CN2CCN(c3ccc(C(=O)NS(=O)(=O)c4ccc(N[C@H](CCN5CCOCC5)CSc5ccccc5)c(S(=O)(=O)C(F)(F)F)c4)cc3)CC2)C1 [Navitoclax] (partner 0.5 µM)
Procedure, shortened: as §1

Tipifarnib + Phenformin = compound: Cn1cncc1[C@@](N)(c1ccc(Cl)cc1)c1ccc2c(c1)c(-c1cccc(Cl)c1)cc(=O)n2C [Tipifarnib] + N=C(N)NC(=N)NCCc1ccccc1 [Phenformin] (partner 250 µM)
Procedure, shortened: as §1

Tipifarnib + Pemetrexed = compound: Cn1cncc1[C@@](N)(c1ccc(Cl)cc1)c1ccc2c(c1)c(-c1cccc(Cl)c1)cc(=O)n2C [Tipifarnib] + Nc1nc2[nH]cc(CCc3ccc(C(=O)N[C@@H](CCC(=O)O)C(=O)O)cc3)c2c(=O)[nH]1 [Pemetrexed] (partner 0.2 µM)
Procedure, shortened: as §1

Row | Cell Line | relative viability (Tipifarnib + Trametinib; first compound 0.01 µM) | relative viability (Tipifarnib + Trametinib; first compound 0.03162 µM) | relative viability (Tipifarnib + Trametinib; first compound 0.1 µM) | relative viability (Tipifarnib + Trametinib; first compound 0.3162 µM) | relative viability (Tipifarnib + Trametinib; first compound 1 µM) | relative viability (Tipifarnib + Navitoclax; first compound 0.01 µM) | relative viability (Tipifarnib + Navitoclax; first compound 0.03162 µM) | relative viability (Tipifarnib + Navitoclax; first compound 0.1 µM) | relative viability (Tipifarnib + Navitoclax; first compound 0.3162 µM) | relative viability (Tipifarnib + Navitoclax; first compound 1 µM) | relative viability (Tipifarnib + Phenformin; first compound 0.01 µM) | relative viability (Tipifarnib + Phenformin; first compound 0.03162 µM) | relative viability (Tipifarnib + Phenformin; first compound 0.1 µM) | relative viability (Tipifarnib + Phenformin; first compound 0.3162 µM) | relative viability (Tipifarnib + Phenformin; first compound 1 µM) | relative viability (Tipifarnib + Pemetrexed; first compound 0.01 µM) | relative viability (Tipifarnib + Pemetrexed; first compound 0.03162 µM) | relative viability (Tipifarnib + Pemetrexed; first compound 0.1 µM) | relative viability (Tipifarnib + Pemetrexed; first compound 0.3162 µM) | relative viability (Tipifarnib + Pemetrexed; first compound 1 µM)
1 | NCI-H1944 | 0.438 | 0.371 | 0.348 | 0.297 | 0.302 | 1.18 | 0.826 | 0.913 | 0.519 | 0.524 | 0.207 | 0.194 | 0.163 | 0.155 | 0.168 | 0.531 | 0.581 | 0.48 | 0.438 | 0.409
2 | HCC-78 | 0.966 | 0.766 | 0.647 | 0.623 | 0.664 | 0.752 | 0.896 | 0.743 | 0.59 | 0.302 | 0.699 | 0.756 | 0.611 | 0.558 | 0.423 | 0.934 | 0.941 | 0.91 | 0.906 | 0.933
3 | NCI-H2405 | 0.7 | 0.518 | 0.487 | 0.489 | 0.582 | 1.01 | 0.86 | 0.961 | 0.8 | 0.537 | 0.384 | 0.371 | 0.374 | 0.415 | 0.361 | 1.03 | 1.07 | 0.964 | 0.967 | 0.866
4 | SK-LU-1 | 0.572 | 0.483 | 0.442 | 0.384 | 0.392 | 0.779 | 0.488 | 0.435 | 0.25 | 0.405 | 0.528 | 0.324 | 0.307 | 0.275 | 0.283 | 0.961 | 0.931 | 0.723 | 0.63 | 0.5
5 | EMC-BAC-2 | 0.81 | 0.754 | 0.655 | 0.606 | 0.614 | 1.2 | 1.12 | 1.06 | 0.993 | 0.816 | 0.501 | 0.437 | 0.459 | 0.485 | 0.357 | 0.412 | 0.434 | 0.45 | 0.462 | 0.469
6 | NCI-H1650 | 0.442 | 0.285 | 0.474 | 0.294 | 0.236 | 0.666 | 0.352 | 0.402 | 0.291 | 0.289 | 0.291 | 0.209 | 0.196 | 0.262 | 0.187 | 0.427 | 0.379 | 0.329 | 0.271 | 0.278
7 | NCI-H596 | 0.759 | 1 | 0.593 | 0.53 | 0.527 | 1.05 | 0.78 | 0.72 | 0.739 | 0.64 | 0.801 | 0.745 | 0.663 | 0.574 | 0.658 | 0.488 | 0.492 | 0.482 | 0.528 | 0.514
8 | LCLC-97TM1 | 0.202 | 0.209 | 0.171 | 0.17 | 0.157 | 0.557 | 0.359 | 0.241 | 0.446 | 0.19 | 0.423 | 0.382 | 0.446 | 0.355 | 0.231 | 0.169 | 0.208 | 0.192 | 0.16 | 0.144

— the supplement of paper PMC10307832
